Results published in US20190330226A1, “POSITIVE ALLOSTERIC MODULATORS OF THE MUSCARINIC ACETYLCHOLINE RECEPTOR M1” (Vanderbilt University, priority 2018, published 2019).

Target: T1, human mAChR M1 (Homo sapiens, UniProt P11229)
T1 construct: host or cells: CHO-K1 (ATCC), stably transfected using Lipofectamine 2000
T1 sequence (P11229 1-460): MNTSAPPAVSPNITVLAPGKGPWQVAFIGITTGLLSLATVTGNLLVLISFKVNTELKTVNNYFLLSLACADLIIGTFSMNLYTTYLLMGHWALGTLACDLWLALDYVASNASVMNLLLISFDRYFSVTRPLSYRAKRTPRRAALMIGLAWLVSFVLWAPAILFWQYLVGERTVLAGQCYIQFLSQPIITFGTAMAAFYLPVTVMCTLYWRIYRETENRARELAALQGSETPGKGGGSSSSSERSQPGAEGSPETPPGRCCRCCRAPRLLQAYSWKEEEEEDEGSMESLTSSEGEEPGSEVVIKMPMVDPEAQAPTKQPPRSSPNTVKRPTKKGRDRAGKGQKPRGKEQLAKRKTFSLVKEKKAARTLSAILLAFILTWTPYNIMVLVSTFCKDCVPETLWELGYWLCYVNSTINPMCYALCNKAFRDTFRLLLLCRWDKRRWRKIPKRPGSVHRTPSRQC
Assay: mAChR M1 cell-based functional assay (calcium mobilization, Fluo-4, FDSS)
Conditions: CHO-K1 cells stably expressing hM1, calcium flux; for Emax: PAM mode with EC20 acetylcholine; for EC50: concentration-dependent increase in the EC20 acetylcholine response
Excerpt: Chinese hamster ovary (CHO-K1) cells stably expressing rat (r)M1 were purchased from the American Type Culture Collection and cultured according to their indicated protocol. CHO cells stably expressing human (h)M2, hM3, and hM5 were described previously (Levey, et al., 1991); hM1 and hM4 cDNAs were purchased from Missouri S&T cDNA Resource; rM4 cDNA was provided by T. I. Bonner (National Institutes of Health, Bethesda, Md.). rM2 and rM3 were cloned from a rat brain cDNA library and sequence verified. hM1, rM2, rM3, hM4, and rM4 cDNAs were used to stably transfect CHO-K1 cells purchased from the American Type Culture Collection using Lipofectamine 2000. To make stable rM2, hM2, rM3, hM4, and rM4 cell lines for use in calcium mobilization assays, these cells also were stably transfected with a chimeric G-protein (Gqi5) (provided by B. R. Conklin, University of California, San Francisco) using Lipofectamine 2000. rM1, hM1, rM3, hM3, rM5, and hM5 cells were grown in Ham's F-12 medium containing 10% heat-inactivated fetal bovine serum (FBS), 20 mM HEPES, and 50 µg/mL G418 sulfate. rM2-Gqi5, hM2-Gqi5, and hM4-Gqi5 cells were grown in the same medium also containing 500 μg/mL Hygromycin B. Stable rM4-Gqi5 cells were grown in DMEM containing 10% heat-inactivated FBS, 20 mM HEPES, 400 μg/mL G418 sulfate, and 500 μg/mL Hygromycin B.
For high throughput measurement of agonist-evoked increases in intracellular calcium, CHO-K1 cells stably expressing muscarinic receptors were plated in growth medium lacking G418 and hygromycin at 15,000 cells/20 μL/well in Greiner 384-well black-walled, tissue culture (TC)-treated, clear-bottom plates (VWR). Cells were incubated overnight at 37° C. and 5% CO2. The next day, cells were washed using an ELX 405 (BioTek) with four washes ([…]) of assay buffer then aspirated to 20 μL. Next, 20 μL of 16 μM Fluo-4/acetoxymethyl ester (Invitrogen, Carlsbad, Calif.) prepared as a 2.3 mM stock in DMSO and mixed in a 1:1 ratio with 10% (w/v) Pluronic F-127 and diluted in assay buffer was added to the wells and the cell plates were incubated for 50 min at 37° C. and 5% CO2. Dye was removed by washing with the ELX 405 (four 80 μL washes of assay buffer) then aspirated to 20 μL. Compound master plates were formatted in an 11 point CRC format (1:3 dilutions) in 100% DMSO with a starting concentration of 10 mM using the BRAVO liquid handler (Agilent). Test compound CRCs were then transferred to daughter plates (240 nL) using the Echo acoustic plate reformatter (Labcyte, Sunnyvale, Calif.) and then diluted into assay buffer (40 μL) to a 2× stock using a Thermo Fisher Combi (Thermo Fisher Scientific, Waltham, Mass.).
Calcium flux was measured using the Functional Drug Screening System (FDSS) 6000 (Hamamatsu Corporation, Tokyo, Japan) as an increase in the fluorescent static ratio. Compounds were applied to cells (20 μL, 2×) using the automated system of the FDSS 6000 at 4 s into the 300 s protocol and the data were collected at 1 Hz. At 144 s into the 300s protocol, 10 μL of an EC20 concentration of the muscarinic receptor agonist acetylcholine was added (5×), followed by the addition of 12 μL an EC80 concentration of acetylcholine at the 230 s time point (5×). Agonist activity was analyzed as a concentration-dependent increase in calcium mobilization upon compound addition. Positive allosteric modulator activity was analyzed as a concentration-dependent increase in the EC20 acetylcholine response. Antagonist activity was analyzed as a concentration-dependent decrease in the EC80 acetylcholine response. Concentration-response curves were generated using a four-parameter logistical equation in XLfit curve fitting software (IDBS, Bridgewater, N.J.) for Excel (Microsoft, Redmond, Wash.) or Prism (GraphPad Software, Inc., San Diego, Calif.).
Activity (EC50 and Emax) was determined in the mAChR M1 cell-based functional assay as described above and the data are shown in Table 2. […]

Structure (SMILES) | Emax | EC50
Cc1nn(C)cc1-c1ccc(CN2Cc3sccc3C2=O)c(F)c1 [Compound 43, 5-(4-(1,3-dimethyl-1H-pyrazol-4-yl)-2-fluorobenzyl)-5,6-dihydro-4H-thieno[2,3-c]pyrrol-4-one] | 70% | –
Cn1cc2c(-c3cc(F)c(CN4Cc5cn(CCO)nc5C4=O)c(F)c3)cccc2n1 [Compound 25, 5-(2,6-difluoro-4-(2-methyl-2H-indazol-4-yl)benzyl)-2-(2-hydroxyethyl)-4,5-dihydropyrrolo[3,4-c]pyrazol-6(2H)-one] | 74% | 9150 nM
Cn1cc2c(-c3cc(F)c(CN4Cc5cn(Cc6ccccn6)nc5C4=O)c(F)c3)cccc2n1 [Compound 7, 5-(2,6-difluoro-4-(2-methyl-2H-indazol-4-yl)benzyl)-2-(pyridin-2-ylmethyl)-4,5-dihydropyrrolo[3,4-c]pyrazol-6(2H)-one] | 46% | –
Cn1cc2c(-c3cc(F)c(CN4Cc5cnn(CC6CCCO6)c5C4=O)c(F)c3)cccc2n1 (centres unmarked) [Compound 16, 5-(2,6-difluoro-4-(2-methyl-2H-indazol-4-yl)benzyl)-1-((tetrahydrofuran-2-yl)methyl)-4,5-dihydropyrrolo[3,4-c]pyrazol-6(1H)-one] | 93% | 920 nM
Cn1cc2c(-c3cc(F)c(CN4Cc5occc5C4=O)c(F)c3)cccc2n1 [Compound 56, 5-(2,6-difluoro-4-(2-methyl-2H-indazol-4-yl)benzyl)-5,6-dihydro-4H-furo[2,3-c]pyrrol-4-one] | 80% | 3600 nM
Cc1nn(C)cc1-c1cc(F)c(CN2Cc3occc3C2=O)c(F)c1 [Compound 59, 5-(4-(1,3-dimethyl-1H-pyrazol-4-yl)-2,6-difluorobenzyl)-5,6-dihydro-4H-furo[2,3-c]pyrrol-4-one] | 90% | –
Cn1cc2c(-c3cc(F)c(CN4Cc5ccn(CCN6CCCC6)c5C4=O)c(F)c3)cccc2n1 [Compound 11, 5-(2,6-difluoro-4-(2-methyl-2H-indazol-4-yl)benzyl)-1-(2-(pyrrolidin-1-yl)ethyl)-4,5-dihydropyrrolo[3,4-b]pyrrol-6(1H)-one] | 57% | 2920 nM
Cn1cc2c(-c3cc(F)c(CN4Cc5cc[nH]c5C4=O)c(F)c3)cccc2n1 [Compound 9, 5-(2,6-difluoro-4-(2-methyl-2H-indazol-4-yl)benzyl)-4,5-dihydropyrrolo[3,4-b]pyrrol-6(1H)-one] | 36% | 1880 nM
Cn1cc2cc(-c3cc(F)c(CN4Cc5ccsc5C4=O)c(F)c3)ccc2n1 [Compound 31, 5-(2,6-difluoro-4-(2-methyl-2H-indazol-5-yl)benzyl)-4,5-dihydro-6H-thieno[2,3-c]pyrrol-6-one] | 40% | 246 nM
Cn1cc2c(-c3cc(F)c(CN4Cc5sccc5C4=O)c(F)c3)cccc2n1 [Compound 1, 5-(2,6-difluoro-4-(2-methyl-2H-indazol-4-yl)benzyl)-5,6-dihydro-4H-thieno[2,3-c]pyrrol-4-one] | 84% | 1590 nM
Cn1cc2cc(-c3cc(F)c(CN4Cc5cnn(CC6CCCO6)c5C4=O)c(F)c3)ccc2n1 (centres unmarked) [Compound 36, 5-(2,6-difluoro-4-(2-methyl-2H-indazol-5-yl)benzyl)-1-((tetrahydrofuran-2-yl)methyl)-4,5-dihydropyrrolo[3,4-c]pyrazol-6(1H)-one] | 82% | 1480 nM
Cn1cc2c(-c3cc(F)c(CN4Cc5cnn(Cc6ccccn6)c5C4=O)c(F)c3)cccc2n1 [Compound 6, 5-(2,6-Difluoro-4-(2-methyl-2H-indazol-4-yl)benzyl)-1-(pyridin-2-ylmethyl)-4,5-dihydropyrrolo[3,4-c]pyrazol-6(1H)-one] | 63% | –
Cn1cc2c(-c3cc(F)c(CN4Cc5cn(CC6CCCO6)nc5C4=O)c(F)c3)cccc2n1 (centres unmarked) [Compound 17, 5-(2,6-difluoro-4-(2-methyl-2H-indazol-4-yl)benzyl)-2-((tetrahydrofuran-2-yl)methyl)-4,5-dihydropyrrolo[3,4-c]pyrazol-6(2H)-one] | 58% | 3410 nM
COCCn1ncc2c1C(=O)N(Cc1c(F)cc(-c3cccc4nn(C)cc34)cc1F)C2 [Compound 18, 5-(2,6-difluoro-4-(2-methyl-2H-indazol-4-yl)benzyl)-1-(2-methoxyethyl)-4,5-dihydropyrrolo[3,4-c]pyrazol-6(1H)-one] | 87% | 3100 nM
Cn1cc2c(-c3cc(F)c(CN4Cc5ccsc5C4=O)c(F)c3)cccc2n1 [Compound 2, 5-(2,6-difluoro-4-(2-methyl-2H-indazol-4-yl)benzyl)-4,5-dihydro-6H-thieno[2,3-c]pyrrol-6-one] | 70% | 1260 nM
Cn1cc(-c2ccc(CN3Cc4sccc4C3=O)cc2)cn1 [Compound 46, 5-(4-(1-methyl-1H-pyrazol-4-yl)benzyl)-5,6-dihydro-4H-thieno[2,3-c]pyrrol-4-one] | 50% | –
Cn1cc2cc(-c3cc(F)c(CN4Cc5occc5C4=O)c(F)c3)ccc2n1 [Compound 57, 5-(2,6-difluoro-4-(2-methyl-2H-indazol-5-yl)benzyl)-5,6-dihydro-4H-furo[2,3-c]pyrrol-4-one] | 42% | 990 nM
Cn1cc(-c2ccc(CN3Cc4ncsc4C3=O)c(F)c2)cn1 [Compound 12, 5-(2-fluoro-4-(1-methyl-1H-pyrazol-4-yl)benzyl)-4,5-dihydro-6H-pyrrolo[3,4-d]thiazol-6-one] | 47% | –
Cn1cc2cccc(-c3cc(F)c(CN4Cc5occc5C4=O)c(F)c3)c2n1 [Compound 60, 5-(2,6-difluoro-4-(2-methyl-2H-indazol-7-yl)benzyl)-5,6-dihydro-4H-furo[2,3-c]pyrrol-4-one] | 50% | –
O=C1c2ccsc2CN1Cc1ccc(-c2cscn2)cc1 [Compound 47, 5-(4-(thiazol-4-yl)benzyl)-5,6-dihydro-4H-thieno[2,3-c]pyrrol-4-one] | 30% | –
Cn1cc(-c2ccc(CN3Cc4sccc4C3=O)c(F)c2)cn1 [Compound 41, 5-(2-fluoro-4-(1-methyl-1H-pyrazol-4-yl)benzyl)-5,6-dihydro-4H-thieno[2,3-c]pyrrol-4-one] | 69% | –
COCCn1cc2c(n1)C(=O)N(Cc1c(F)cc(-c3cccc4nn(C)cc34)cc1F)C2 [Compound 19, 5-(2,6-difluoro-4-(2-methyl-2H-indazol-4-yl)benzyl)-2-(2-methoxyethyl)-4,5-dihydropyrrolo[3,4-c]pyrazol-6(2H)-one] | 45% | –
Cn1cc2c(-c3cc(F)c(CN4Cc5ncsc5C4=O)c(F)c3)cccc2n1 [Compound 5, 5-(2,6-difluoro-4-(2-methyl-2H-indazol-4-yl)benzyl)-4,5-dihydro-6H-pyrrolo[3,4-d]thiazol-6-one] | 73% | –
